molecular target: Substance-P receptor (Homo sapiens, UniProt P25103); test: Compound was evaluated for the inhibition of binding of [3H]SP in human IM-9 cells; type: cell-based
Sequence (P25103 whole entry): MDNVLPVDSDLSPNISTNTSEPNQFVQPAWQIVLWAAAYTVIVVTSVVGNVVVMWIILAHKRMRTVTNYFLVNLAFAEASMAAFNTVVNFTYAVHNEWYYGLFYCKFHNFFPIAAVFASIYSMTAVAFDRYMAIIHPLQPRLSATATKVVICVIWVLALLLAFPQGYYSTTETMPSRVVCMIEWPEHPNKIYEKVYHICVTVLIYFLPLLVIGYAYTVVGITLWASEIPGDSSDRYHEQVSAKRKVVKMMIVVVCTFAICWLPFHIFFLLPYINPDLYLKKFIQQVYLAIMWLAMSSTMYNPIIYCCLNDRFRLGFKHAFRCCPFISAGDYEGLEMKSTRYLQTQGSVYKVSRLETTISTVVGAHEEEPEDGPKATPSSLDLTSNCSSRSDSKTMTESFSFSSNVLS

| SMILES | IC50 |
| --- | --- |
| COc1ccccc1CN[C@H]1C2CCCN(CC2)[C@H]1C(c1ccccc1)c1ccccc1 (some centres undefined) | 34.3 nM |
| COc1ccccc1CN[C@H]1C2CCCN(CC2)[C@H]1C(c1ccc(F)cc1)c1ccc(F)cc1 (some centres undefined) | 310 nM |
| COc1ccc(CN[C@H]2C3CCCN(CC3)[C@H]2C(c2ccccc2)c2ccccc2)c(OC)c1 (some centres undefined) | 86.3 nM |
| Clc1ccccc1CN[C@H]1C2CCCN(CC2)[C@H]1C(c1ccccc1)c1ccccc1 (some centres undefined) | 560 nM |

— ChEMBL document CHEMBL1159169, “Nuclear variations of quinuclidine substance P antagonists: 2-diphenylmethyl-1-azabicyclo[3.2.2]nonan-3-amines” (Bioorg Med Chem Lett, 1993)
